The values below come from article PMC11150212, “Synthesis and evaluation of [^18F]FBNAF, a STAT3-targeting probe, for PET imaging of tumor microenvironment” (EJNMMI Radiopharmacy and Chemistry, 2024).

Several values for one entry are separate records, joined by “and”; a condition that tells them apart may be missing. Equal values may be shown once. Read-outs that look alike come from different tables or passages of the source.

The subject of data set [1] is A549 tumor-bearing mice. The data set is described as follows: In vivo biodistribution. The arrangement: species or system BALB/c nude mice. The procedure: (§1) BALB/c nude mice (male, 4 weeks old) and ddY mice (male, 6 weeks old) were purchased from Japan SLC (Shizuoka, Japan) and given free access to food and water. All animal experiments were conducted according to Osaka Medical and Pharmaceutical University guidelines, and the study protocol was approved by the Institutional Experimental Animal Committee (Permission Number: 22-76, AP23-004). To prepare tumor-bearing mice, A549 cells (4 × 10^6 cells/mouse) suspended in culture medium (100 μL) were implanted subcutaneously into the right hind leg of each mouse. Animals with a tumor size of approximately 100 mm^3 (length × width^2 × 1/2) after inoculation with A549 cells were used for in vivo and ex vivo experiments.
(§2) [^18F]FBNAF (115-343 kBq, 100 μL) in 5% DMSO/PBS (−) was intravenously injected into mice. The animals were euthanized under isoflurane anesthesia at 10, 30, 60, and 120 min postinjection, and the tissues of interest were excised and weighed. Radioactivity was measured using a γ-counter. The accumulation of radioactivity was expressed as the percent injected dose per gram tissue (%ID/g) for all tissues excluding the stomach, in which accumulation was expressed as the percent injected dose per organ (%ID). For the blocking study, [^18F]FBNAF (115-360 kBq, 100 μL) in 5% DMSO/PBS (−) was intravenously coinjected with BP-1-102 (3.0 mg/kg, Selleck, Shanghai, China) into mice, and after 30 min, the accumulated radioactivity in the tumor, blood, and muscle were measured. Radioactivity was decay-corrected at the time of administration.

For the next data set, the target named is T1, STAT3 (Homo sapiens, UniProt P40763).
T1 construct: sections prepared from the excised tumors of A549 tumor-bearing mice at 30 min postinjection of [^18F]FBNAF; from tissue; host or cells: A549 (human lung cancer) xenograft tumour excised from tumour-bearing mice
The data set is described as follows: Ex vivo autoradiography and immunohistochemistry. It counts as in vivo, mouse. To be noted: tumor sections, 30 min postinjection, A549 tumor-bearing mice. The procedure:
Tumors were excised 30 min after the intravenous injection of [^18F]FBNAF (3–6 MBq, 100 μL) and immediately frozen in OCT compound. The frozen tumor was cut into 10 µm thick sections using Cryotome and contacted with a phosphor screen in a cassette overnight. The screen was scanned using an Amersham Typhoon scanner (Cytiva), and the resulting images were analyzed using Image-Quant TL (Cytiva).
For immunohistochemistry, adjacent sections were fixed with cold acetone (− 20℃) for 10 min. After blocking using Blocking One Histo (Nacalai Tesque), the sections were incubated with antibodies against STAT3 (1:200 dilution, #4904) or pSTAT3(Tyr705) (1:200 dilution, #9145) overnight at 4℃. After a rinse, anti-rabbit IgG(H + L) CF555 (1:1000 dilution, SAB4600068, Sigma-Aldrich, St. Louis, MO, USA) was added, followed by incubation for 30 min at room temperature. Nuclear staining was performed by incubation with Hoechst 33,342 (Nacalai Tesque) for 10 min.

In data set [2] the test system is A549 tumor-bearing mice. The data set is described as follows: In vivo blocking study with coinjected BP-1-102. Also on record: species or system BALB/c nude mice. The procedure: as §1, §2
Data set [3] can be described thus: In vitro stability in mouse plasma. The format is in vitro ADME, ddY mouse. To be noted: 3 h incubation in mouse plasma, 37℃, normal-phase TLC. As for the experimental part:
[^18F]FBNAF (152 kBq, 20 μL) in 5% DMSO/PBS ( −) was incubated with ddY mouse plasma (180 μL) at 37℃ for 10, 60, 120, or 180 min. After protein removal using CH3CN (400 μL), the supernatant was filtered through a Cosmonice Filter W and analyzed by TLC (Rf = 0.4, ethyl acetate:hexane = 1:1), followed by radioactivity counting using a γ-counter (2480 Wizard^2, PerkinElmer Japan, Kanagawa, Japan; n = 3). The intact rate (%) was represented as the intact form relative to the total radioactivity.

Data set [4] concerns STAT3 phosphorylation (Tyr705) in A549 cells. The data set is described as follows: Phosphorylation inhibitory assay (western blotting). It counts as cell-based, Human. As to conditions: 24 h. As for the experimental part: Several concentrations of FBNAF (final conc. 0, 0.2, 0.5 1.0, and 2.0 μM in medium containing 1% DMSO) were added to A549 cells, followed by incubation at 37℃ for 24 h. After harvesting, cells were lysed with Passive Lysis Buffer (Promega, Madison, WI, USA) containing 1% protease inhibitor and 1% phosphatase inhibitor. Cell protein was quantified using a Pierce BCA Protein Assay Kit (Thermo Scientific, Waltham, MA, USA). The samples (15 μg/lane) were loaded and separated on an sodium dodecyl sulfate (SDS) polyacrylamide gel. Western blotting was performed using primary antibodies against STAT3 (1:2000 dilution, #4904, Cell Signaling Technology, Danvers, MA, USA), pSTAT3(Tyr705) (1:2000 dilution, #9145, Cell Signaling Technology), and β-actin (1:5000 dilution, NB600-503, Novus Biologicals, Centennial, CO, USA), as well as anti-rabbit IgG HRP-conjugated antibody (1:3000 dilution, HAF008, R&D Systems, Minneapolis, MN, USA) as a secondary antibody. The western blot bands were detected using Chemi-Lumi One L (Nacalai Tesque) and analyzed using an Amersham imager 600 (Cytiva, Tokyo, Japan). To detect pSTAT3, Chemi-Lumi One Ultra (Nacalai Tesque) was used.
(In general: Immunoblotting shows a protein as a band on a membrane.)

A further data set deals with HCT116. The arrangement: method as in Wang et al. [2020]. As to conditions: ref Wang et al. [2020]; cited from earlier work.
A further data set deals with RKO. The arrangement: method as in Wang et al. [2020]. To be noted: ref Wang et al. [2020]; cited from earlier work.
The target of the next data set is SH2 domain of STAT3. As to conditions: cited from earlier work.
Data set [5] deals with A549 tumor-bearing mice. The arrangement: method as in Zhang et al. [2012]. To be noted: repeated intravenous administration, ref Zhang et al. [2012]; cited from earlier work.
The mark [6] stands for this setting: blocking group, coinjection of BP-1-102 3.0 mg/kg, 30 min.
The mark [7] stands for this setting: control group without BP-1-102, 30 min.

T1 sequence (P40763 whole entry): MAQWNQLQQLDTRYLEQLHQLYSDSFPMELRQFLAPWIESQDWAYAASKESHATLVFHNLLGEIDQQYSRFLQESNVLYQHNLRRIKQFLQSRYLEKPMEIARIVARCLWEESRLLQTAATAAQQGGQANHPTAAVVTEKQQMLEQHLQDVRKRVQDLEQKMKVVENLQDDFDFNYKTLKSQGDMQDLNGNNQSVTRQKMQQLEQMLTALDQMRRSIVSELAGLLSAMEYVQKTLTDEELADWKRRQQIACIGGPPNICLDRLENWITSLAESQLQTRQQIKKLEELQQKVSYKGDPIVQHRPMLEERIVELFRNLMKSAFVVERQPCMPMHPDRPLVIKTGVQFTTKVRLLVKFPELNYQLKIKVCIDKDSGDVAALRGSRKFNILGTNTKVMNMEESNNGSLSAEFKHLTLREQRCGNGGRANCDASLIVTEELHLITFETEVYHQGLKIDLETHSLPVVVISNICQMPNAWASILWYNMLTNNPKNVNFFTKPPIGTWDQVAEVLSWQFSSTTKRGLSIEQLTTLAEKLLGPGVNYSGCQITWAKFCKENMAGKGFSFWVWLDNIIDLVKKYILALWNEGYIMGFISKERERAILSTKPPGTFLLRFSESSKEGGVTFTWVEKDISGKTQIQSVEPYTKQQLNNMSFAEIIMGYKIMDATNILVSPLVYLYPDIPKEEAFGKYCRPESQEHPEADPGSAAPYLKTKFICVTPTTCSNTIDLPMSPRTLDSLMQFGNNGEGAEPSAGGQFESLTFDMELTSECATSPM

In the case of `CC1CC2=C(O1)c1ccc(OCc3ccc([18F])cc3)cc1C(=O)C2=O` (stereo not shown) [[^18F]FBNAF, 7-(4-[^18F]Fluoro-benzyloxy)-2-methyl-2,3-dihydro-naphtho[1,2-b]furan-4,5-dione], in the data set on A549 tumor-bearing mice [1] (10 min after i.v. injection), the Blood radioactivity stood at 1.0 ± 0.2 %ID/g, the Bone radioactivity was 2.1 ± 0.2 %ID/g, the Brain radioactivity was 1.9 ± 1.1 %ID/g and the Colon radioactivity is on record as 0.8 ± 0.4 %ID/g. Besides, in the data set on A549 tumor-bearing mice [1] (10 min after i.v. injection), the Heart radioactivity turned out to be 2.3 ± 0.8 %ID/g, the Kidney radioactivity was 19.5 ± 7.7 %ID/g, the Liver radioactivity is 10.8 ± 2.8 %ID/g and the Lung radioactivity was found to be 4.4 ± 1.0 %ID/g. Further, in the data set on A549 tumor-bearing mice [1] (10 min after i.v. injection), the Muscle radioactivity was 2.1 ± 0.8 %ID/g, the Pancreas radioactivity stood at 6.3 ± 2.9 %ID/g, the Small intestine radioactivity amounted to 11.6 ± 5.5 %ID/g and the Spleen radioactivity came to 2.7 ± 0.7 %ID/g. In addition, in the data set with A549 tumor-bearing mice [1] (10 min after i.v. injection), the Stomach radioactivity is 0.6 ± 0.3 %ID, the Tumor radioactivity amounted to 1.5 ± 0.3 %ID/g, the Tumor/blood ratio is 1.6 ± 0.3 and the Tumor/muscle ratio was 0.8 ± 0.1. In the data set on A549 tumor-bearing mice [1] (30 min after i.v. injection), the Blood radioactivity amounted to 1.0 ± 0.3 %ID/g, the Bone radioactivity was found to be 2.3 ± 0.6 %ID/g, the Brain radioactivity was found to be 0.8 ± 0.1 %ID/g and the Colon radioactivity came out at 0.7 ± 0.4 %ID/g. Further, in the data set with A549 tumor-bearing mice [1] (30 min after i.v. injection), the Heart radioactivity was found to be 1.5 ± 0.7 %ID/g, the Kidney radioactivity stood at 4.5 ± 1.2 %ID/g, the Liver radioactivity is 5.3 ± 1.9 %ID/g and the Lung radioactivity came to 3.3 ± 2.0 %ID/g. Besides, in the data set with A549 tumor-bearing mice [1] (30 min after i.v. injection), the Muscle radioactivity came out at 0.6 ± 0.1 %ID/g, the Pancreas radioactivity was 1.1 ± 0.3 %ID/g, the Small intestine radioactivity is 38.3 ± 5.7 %ID/g and the Spleen radioactivity is 1.6 ± 0.5 %ID/g. In the data set with A549 tumor-bearing mice [1] (30 min after i.v. injection), the Stomach radioactivity amounted to 3.6 ± 2.8 %ID, the Tumor radioactivity stood at 1.7 ± 0.4 %ID/g and the Tumor/blood ratio is on record as 2.0 ± 1.0. In the data set on A549 tumor-bearing mice [1] (60 min after i.v. injection), the Blood radioactivity came out at 0.5 ± 0.1 %ID/g, the Bone radioactivity amounted to 1.5 ± 0.5 %ID/g, the Brain radioactivity turned out to be 0.5 ± 0.0 %ID/g and the Colon radioactivity was found to be 11.0 ± 3.5 %ID/g. In the data set on A549 tumor-bearing mice [1] (60 min after i.v. injection), the Heart radioactivity came to 0.7 ± 0.1 %ID/g, the Kidney radioactivity was 0.9 ± 0.3 %ID/g, the Liver radioactivity is listed as 2.2 ± 0.3 %ID/g and the Lung radioactivity came to 1.2 ± 0.0 %ID/g. In the data set with A549 tumor-bearing mice [1] (60 min after i.v. injection), the Muscle radioactivity amounted to 0.5 ± 0.2 %ID/g, the Pancreas radioactivity stood at 0.5 ± 0.1 %ID/g, the Small intestine radioactivity amounted to 48.4 ± 7.4 %ID/g and the Spleen radioactivity worked out at 0.9 ± 0.1 %ID/g. For the same compound, in the data set on A549 tumor-bearing mice [1] (60 min after i.v. injection), the Stomach radioactivity was determined as 1.4 ± 1.4 %ID, the Tumor radioactivity came to 0.9 ± 0.3 %ID/g, the Tumor/blood ratio stood at 2.0 ± 0.8 and the Tumor/muscle ratio is on record as 2.4 ± 1.2. Also, in the data set with A549 tumor-bearing mice [1] (120 min after i.v. injection), the Blood radioactivity turned out to be 0.3 ± 0.0 %ID/g, the Bone radioactivity is 1.9 ± 0.2 %ID/g, the Brain radioactivity was found to be 0.4 ± 0.1 %ID/g and the Colon radioactivity is recorded as 44.4 ± 16.3 %ID/g. Besides, in the data set with A549 tumor-bearing mice [1] (120 min after i.v. injection), the Heart radioactivity turned out to be 0.7 ± 0.2 %ID/g, the Kidney radioactivity is 0.5 ± 0.2 %ID/g, the Liver radioactivity was found to be 1.6 ± 0.8 %ID/g and the Lung radioactivity is listed as 1.0 ± 0.3 %ID/g. Further, in the data set with A549 tumor-bearing mice [1] (120 min after i.v. injection), the Muscle radioactivity turned out to be 0.5 ± 0.1 %ID/g, the Pancreas radioactivity is recorded as 0.6 ± 0.1 %ID/g, the Small intestine radioactivity was 17.8 ± 2.2 %ID/g and the Spleen radioactivity is 0.8 ± 0.3 %ID/g. In addition, in the data set on A549 tumor-bearing mice [1] (120 min after i.v. injection), the Stomach radioactivity is listed as 0.8 ± 1.0 %ID; the Tumor radioactivity is 0.9 ± 0.3 %ID/g; the Tumor/blood ratio is 2.6 and 2.6 ± 0.8; the Tumor/muscle ratio stood at 1.9 ± 0.9. Moreover, the “intratumoral radioactivity distribution versus STAT3 expression” value at STAT3 is listed as “almost corresponded to the STAT3 expression profile”. In the data set on A549 tumor-bearing mice [2] (setting [6]), the tumor-to-blood ratio stood at 1.1 ± 0.3 and the tumor-to-muscle ratio amounted to 2.3 ± 1.2. Further, the Tumor radioactivity in the data set with A549 tumor-bearing mice [2] (blocking group, coinjection of BP-1-102 3.0 mg/kg, 30 min after administration) came to 1.0 ± 0.3 % ID/g. The “radioactivity in blood and muscle, effect of coinjection of the inhibitor” value in the data set on A549 tumor-bearing mice [2] (coinjection of BP-1-102 3.0 mg/kg, 30 min) is reported as “negligibly affected”. For the same compound, in the data set on A549 tumor-bearing mice [2] (setting [7]), the tumor-to-blood ratio amounted to 2.0 ± 1.0 and the tumor-to-muscle ratio turned out to be 2.6 ± 0.3. The “radioactivity in an intact form (intact rate)” value in data set [3] is “more than 85%”.

In the case of `CC1CC2=C(O1)c1ccc(OCc3ccc(F)cc3)cc1C(=O)C2=O` (stereo not shown) [FBNAF, 7-(4-Fluoro-benzyloxy)-2-methyl-2,3-dihydro-naphtho[1,2-b]furan-4,5-dione], the “change in total STAT3 expression” value in data set [4] (0–2 μM) is on record as “no significant change”. Further, the “inhibition of pSTAT3 expression” value was determined as 50% in [4] (0.5 μM) and 60% in data set [4] (1.0 μM).

The IC50 is the concentration that inhibits the measured activity by half. In general, Kd refers to a measure of binding affinity in units of concentration. Consider `Cc1ccc(COc2ccc3c(c2)C(=O)C(=O)C2=C3OC(C)C2)cc1` (stereo not shown) [LYW-6], for which the IC50 was 4.1 µM in the data set with HCT116 and 3.8 µM in the data set with RKO. For the same compound, on SH2 domain of STAT3 (ref Wang et al. [2020]), the Kd was 6.6 µM.

With `CN(CC(=O)N(Cc1ccc(C2CCCCC2)cc1)c1ccc(C(=O)O)c(O)c1)S(=O)(=O)c1c(F)c(F)c(F)c(F)c1F` [BP-1–102], the Kd on SH2 domain of STAT3 (ref Zhang et al. [2012]) is 0.504 µM. In the data set with A549 tumor-bearing mice [5], the “effect on tumor growth” value is listed as “inhibited tumor growth”.
